Source: US20150175599A1, “FAAH Inhibitors” (Ironwood Pharmaceuticals, Inc., priority 2010, published 2015)

Legend:
human FAAH-1 = molecular target: T1, human FAAH-1 (Homo sapiens, UniProt O00519); experiment: Whole cell anandamide hydrolysis assay (HeLa clone 5c5 transfected with human FAAH-1); type: cell-based; settings: HeLa clone 5c5 expressing human FAAH-1; read-out: human FAAH whole cell IC50
T1 sequence (O00519 1-579): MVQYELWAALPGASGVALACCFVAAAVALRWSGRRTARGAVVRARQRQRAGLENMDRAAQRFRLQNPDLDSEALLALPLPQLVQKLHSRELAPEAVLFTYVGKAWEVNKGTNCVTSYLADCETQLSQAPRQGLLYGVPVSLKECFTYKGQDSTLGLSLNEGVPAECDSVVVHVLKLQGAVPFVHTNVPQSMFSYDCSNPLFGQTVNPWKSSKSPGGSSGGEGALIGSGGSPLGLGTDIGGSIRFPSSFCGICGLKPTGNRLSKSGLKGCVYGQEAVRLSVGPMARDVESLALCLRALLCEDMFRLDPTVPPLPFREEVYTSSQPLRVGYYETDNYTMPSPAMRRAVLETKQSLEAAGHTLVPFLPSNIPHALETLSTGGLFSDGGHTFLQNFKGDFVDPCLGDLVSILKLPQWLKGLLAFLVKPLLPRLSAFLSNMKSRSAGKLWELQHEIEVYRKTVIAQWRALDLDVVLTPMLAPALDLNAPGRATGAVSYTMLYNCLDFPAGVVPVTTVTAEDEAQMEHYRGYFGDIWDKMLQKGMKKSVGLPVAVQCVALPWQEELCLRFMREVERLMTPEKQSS
Procedure: FAAH activity was assayed in whole cells using methods disclosed previously (Maccarone et al., 1998 J Biol. Chem. 273:32332 and Bisogno et al., 1997 J Biol. Chem. 272:3315). In addition to the cell lines described in Maccarone et al. and Bisogno et al., MCF7 (ATCC designation HTB-22) and T84 (ATCC designation CCL-248) cell lines were also used in these assays.
cDNA expression clone for human FAAH-1 (in pcDNA3 vector) (Genbank Accession U82535; obtained from Benjamin Cravatt, Scripps Research Institute, La Jolla, Calif.) was linearized by digestion with BglII (New England Biolabs) and transfected by calcium phosphate into human HeLa cells (ATCC catalog #CCL-2). […] Following transfection, a stable HeLa-derived clone, designated 5c5, was isolated by single colony purification and expanded and maintained in modified Eagles medium (MEM; VWR catalog #45000-300) containing 10% fetal bovine serum (FBS), 2 mM L-glutamine, and 0.5 mg/mL G-418 (Sigma catalog #G5013).
Clone 5c5 (50,000 cells in 150 μL) was seeded into 96-well plates and incubated overnight (5% CO2, 37° C.). Media was carefully replaced with 180 μL DMEM/F12 medium (VWR catalog #45000-350) containing 15 mM HEPES, pH 7.4 and 0.1% fatty acid free BSA (Sigma catalog #A0281). Then, 2 μL of 100× desired final concentrations of certain exemplary compounds described herein were made up in DMSO, added to wells containing cells, and plates were incubated at 37° C. for 10 min. Next, 20 μL of 5 μM anandamide (Cayman catalog #90050) spiked with 8 μCi of anandamide-(ethanolamine-1-[^3H]) (American Radiolabeled Chemicals, Inc., catalog #ART 626) was added to the cells and the plates were incubated for an additional 15 min at 37° C. The reactions were terminated by chilling the plates on ice and adding 20 μL of 0.5M of potassium phosphate buffer (adjusted to pH 2.1 with phosphoric acid).
The acidified reactions were transferred to 96-well filter plates (0.25 mL capacity/well, 1.2 micron glass fiber pre-filter packed above 0.65 micron pore-size PVDF membrane, Millipore catalog MSFCN6B50) containing 25 μL charcoal (neutral activated carbon, Fisher Scientific catalog C170-500) per well. Prior to the assay, charcoal was measured and loaded onto the plate using an aluminum 96-well column loading device (Millipore catalog MACL09625). The filter plate was assembled over an empty 96-well plate (Costar) using a centrifuge alignment frame (Millipore catalog MACF09604) to allow for collection of the filtrate in the receiver plate. The charcoal glass-fiber filter plates were pre-washed with methanol by centrifugation 650×g for 10 min). Next, 80 μL of water was added to the wells of the pre-washed 96 well charcoal filter plate. Then, 90 μL of the acidified reaction mixture was added to the water in the wells of the charcoal plate. The samples were centrifuged as above. The substrate remained bound to the charcoal, whereas the [^3H]-ethanolamine product formed flowed through and was transferred to the microplates containing scintillation cocktail and quantified in a micro-plate scintillation counter (Perkin-Elmer Microbeta). Control reactions with either no cells or cells treated with DMSO alone were performed in triplicate and used to define background (no cells) and 100% activity (DMSO alone).
Following subtraction of background radioactivity, data were expressed as percent inhibition relative to 100% activity and fit with a nonlinear regression curve using GraphPad Prism Software (GraphPad Software Inc). IC50 values were calculated from the resulting dose-response curves constrained at top and bottom to 100% and 0%, respectively.

[1] = Pharmacokinetic study, plasma level 2 hours after oral dosing in rats; type: in vivo
Procedure: Pharmacokinetic studies were conducted to determine absorption and distribution profiles of the disclosed compounds which were orally administered to rats.
Compounds were formulated in a 1% DMA/99% Vitamin E TPGS vehicle. Prepared compounds were dosed via oral gavage (PO). Following the appropriate pretreatment time of 2 hours, rats were anesthetized with isoflurane gas. Blood was collected into tubes containing EDTA via retro-orbital eye bleed. Whole blood was spun in a micro-centrifuge at approximately 13,000 rpm for 5 minutes at room temperature. Separated plasma was subsequently aliquoted into eppendorf tubes. Samples were stored at −80° C. until prepped for analysis.
Plasma samples were thawed and the required amount of plasma for standards, blanks and dilutions were made. The dilutions were prepared before plating. Preparation of crash solution included cold acetonitrile+0.1% formic acid and 25 ng/mL of a FAAH inhibitor used as internal standard. solvent standards of the FAAH inhibitor being studied were preparation at 10, 30, 100, 300, 1000, 3000, 10000, 30000, 100000, and 300000 ng/mL in DMSO. Then a plasma standard curve was generated from the solvent standards (final concentrations of standards in plasma were: 0.1, 0.3, 1, 3, 10, 30, 100, 300, 1000, 3000 ng/mL). 50 μL of each plasma sample/dilution, standard, or blank was transferred into 96-well plates. To each well, 200 μL of cold crash solution was added. The plate was covered and gently vortexed. The plate was centrifuged at 3500 rpm, 4° C. for 10 min. 200 μL of each supernatant was transferred into new plates. The plates were dried under nitrogen in a TurboVap at 55° C. The sample in each well was re-suspended with 100 μL of 30% acetonitrile, covered and vortexed gently. The well solutions were analyzed by the LC/MS/MS conditions and specifications below.
HPLC column was a Clipeus C8, 2.1×30 mm, 5 μm, with Basic 8 guard column using 20 μL injections. Mobile phase used was mobile phase A: 0.1% Formic Acid in water and mobile phase B: 0.1% Formic Acid in 85:10:5 ACN:IPA:H2O. The flow rate for the run was 0.5 mL/min and the gradient for the 4 minute total run time was: 0.0 minutes

Row | Structure (SMILES) | IC50 (human FAAH-1) [nM] | 2 hr plasma level-ng/mL (rat, 10 mg/kg PO, 2 hr) [1]
1 | COc1cc(NC(=O)C(=O)c2c(C)n(Cc3ccc(Cl)cc3)c3ccc(O)cc23)ccn1 [Compound 2, 2-(1-(4-chlorobenzyl)-5-hydroxy-2-methyl-1H-indol-3-yl)-N-(2-methoxypyridin-4-yl)-2-oxoacetamide] | < 100 | A (A = Less than 10 nM)
2 | COc1cc(NC(=O)C(=O)c2c(C)n(Cc3ccc(Cl)cn3)c3cc(Cl)c(OC)cc23)ccn1 [Compound 60, 2-(6-chloro-1-((5-chloropyridin-2-yl)methyl)-5-methoxy-2-methyl-1H-indol-3-yl)-N-(2-methoxypyridin-4-yl)-2-oxoacetamide] | < 100 | D (D = greater than 1000 nM)
3 | CNc1ccc2c(c1)c(C(=O)C(=O)Nc1ccnc(OC)c1)c(C)n2Cc1ccc(Cl)cc1 [Compound 9, 2-(1-(4-chlorobenzyl)-2-methyl-5-(methylamino)-1H-indol-3-yl)-N-(2-methoxypyridin-4-yl)-2-oxoacetamide] | < 100 | C (C = between 100 nM and 1000 nM)
4 | COc1cc(NC(=O)C(=O)c2c(C)n(Cc3ccc(Cl)cc3)c3ccc(OC(F)(F)F)cc23)ccn1 [Compound 23, 2-(1-(4-chlorobenzyl)-2-methyl-5-(trifluoromethoxy)-1H-indol-3-yl)-N-(2-methoxypyridin-4-yl)-2-oxoacetamide] | < 100 | C (C = between 100 nM and 1000 nM)
5 | COc1cc(NC(=O)C(=O)c2c(C)n(Cc3ccc(Cl)cn3)c3cc(OC)c(Cl)cc23)ccn1 [Compound 67, 2-(5-chloro-1-((5-chloropyridin-2-yl)methyl)-6-methoxy-2-methyl-1H-indol-3-yl)-N-(2-methoxypyridin-4-yl)-2-oxoacetamide] | < 100 | D (D = greater than 1000 nM)
6 | COc1cc(NC(=O)C(=O)c2c(C)n(Cc3ncc(Cl)cc3F)c3cc(F)c(OC)cc23)ccn1 [Compound 99, 2-(1-((5-chloro-3-fluoropyridin-2-yl)methyl)-6-fluoro-5-methoxy-2-methyl-1H-indol-3-yl)-N-(2-methoxypyridin-4-yl)-2-oxoacetamide] | < 100 | D (D = greater than 1000 nM)
7 | COc1cc(NC(=O)C(=O)c2c(C)n(Cc3ccc(Cl)cc3)c3ccc(N)cc23)ccn1 [Compound 20, 2-(5-amino-1-(4-chlorobenzyl)-2-methyl-1H-indol-3-yl)-N-(2-methoxypyridin-4-yl)-2-oxoacetamide] | < 100 | C (C = between 100 nM and 1000 nM)
8 | COc1ccc(Cn2c(C)c(C(=O)C(=O)Nc3ccnc(OC)c3)c3cc(C)ccc32)nc1 [Compound 69, 2-(1-((5-methoxypyridin-2-yl)methyl)-2,5-dimethyl-1H-indol-3-yl)-N-(2-methoxypyridin-4-yl)-2-oxoacetamide] | < 100 | C (C = between 100 nM and 1000 nM)
9 | COc1ccc(Cn2c(C)c(C(=O)C(=O)Nc3ccnc(OC)c3)c3cc(OC)ccc32)nc1 [Compound 43, 2-(5-methoxy-1-((5-methoxypyridin-2-yl)methyl)-2-methyl-1H-indol-3-yl)-N-(2-methoxypyridin-4-yl)-2-oxoacetamide] | < 100 | D (D = greater than 1000 nM)
10 | COc1cc(NC(=O)C(=O)c2c(C)n(Cc3ccc(Cl)cc3)c3ccc(OC(C)=O)cc23)ccn1 [Compound 1, 1-(4-chlorobenzyl)-3-(2-(2-methoxypyridin-4-ylamino)-2-oxoacetyl)-2-methyl-1H-indol-5-yl acetate] | < 100 | A (A = Less than 10 nM)
11 | COc1cc(NC(=O)C(=O)c2c(C)n(Cc3ccc(Cl)cc3)c3ccc(C(F)(F)F)cc23)ccn1 [Compound 21, 2-(1-(4-chlorobenzyl)-2-methyl-5-(trifluoromethyl)-1H-indol-3-yl)-N-(2-methoxypyridin-4-yl)-2-oxoacetamide] | < 100 | C (C = between 100 nM and 1000 nM)
12 | COc1cc(NC(=O)C(=O)c2c(C)n(Cc3ccc(Cl)cc3)c3ccc(C#N)cc23)ccn1 [Compound 15, 2-(1-(4-chlorobenzyl)-5-cyano-2-methyl-1H-indol-3-yl)-N-(2-methoxypyridin-4-yl)-2-oxoacetamide] | < 100 | D (D = greater than 1000 nM)
13 | COc1ccc2c(c1)c(C(=O)C(=O)Nc1cc(OC)ncc1F)c(C)n2Cc1ccc(Cl)cc1 [Compound 54, 2-(1-(4-chlorobenzyl)-5-methoxy-2-methyl-1H-indol-3-yl)-N-(5-fluoro-2-methoxypyridin-4-yl)-2-oxoacetamide] | < 100 | A (A = Less than 10 nM)
14 | COc1cc(NC(=O)C(=O)c2c(C)n(Cc3ccc(Cl)cn3)c3ccc(N(C)C)cc23)ccn1 [Compound 66, 2-(1-((5-chloropyridin-2-yl)methyl)-5-(dimethylamino)-2-methyl-1H-indol-3-yl)-N-(2-methoxypyridin-4-yl)-2-oxoacetamide] | < 100 | D (D = greater than 1000 nM)
